Results as given in patent US10808008B2, “Aromatic-cationic peptides and uses of same” (Cornell University, priority 2012, dated 2020).
“Also recorded” adds a separate entry of the source.

Legend:
Format in all cases: biochemical
[1] = target: cardiolipin-cytochrome c complex (Equus caballus, UniProt P00004); test: Cytochrome c reduction in the presence of cardiolipin; conditions: for rate of cytochrome c reduction in the presence of cardiolipin: 40 μM peptide, 100 μg/ml cardiolipin, 50 μM ascorbate, 10% with cardiolipin alone
Description: Reduction of cytochrome c (20 μM) was induced by the addition of glutathione (500 μM) in the absence or presence of CL (100 μg/ml) (FIG. 15A). Reduction of cytochrome c was monitored by absorbance at 550 nm using a 96-well UV-VIS plate reader (Molecular Devices). Addition of CL decreased the rate of cytochrome c reduction by half.
The time course of cytochrome c reduction by ascorbate was recorded at 550 nm and 570 nm using a 96-well plate reader (Molecular Devices, Sunnyvale, Calif.). For all reactions, cytochrome c was preincubated with cardiolipin in the presence or absence of SS peptides for 1 min. […] Ascorbate (50 μM) was added to initiate the reduction of cytochrome c, and the absorbance was recorded for 5 min. The rate of reduction was calculated based on slope of the change in absorbance intensity of 550 nm over 570 nm.

cytochrome c/CL complex = cytochrome c/CL complex (Equus caballus, UniProt P00004); test: Peroxidase activity of cytochrome c/cardiolipin complex (Amplex Red); conditions: 2 μM cytochrome c; for peroxidation rate of cytochrome c: 10 μM peptide, cardiolipin 100 μg/ml
Source text: The six coordination of the heme in cytochrome c prevents direct interaction of H2O2 with the catalytic metal site, and native cytochrome c in solution is a poor peroxidase. Upon interaction with CL, cytochrome c undergoes a structural change with rupture of the Fe-Met80 coordination. […] The mechanism of action of cytochrome c peroxidase is similar to that of other peroxidases, such as horse radish peroxidase (HRP). Thus it is possible to use the amplex red-HRP reaction to investigate cytochrome c peroxidase activity. In the presence of peroxidase, amplex red (AR) reacts with H2O2 to form the red-fluorescent oxidation product, resorufin (Ex/Em=571/585).
Cytochrome c (2 μM) was mixed with CL (25 μg/ml) and 10 μM H2O2 in 20 mM HEPES, pH 7.4. Amplex red (50 μM) was then added and fluorescence emission monitored in real time using Hitachi F4500 fluorescence spectrophotometer. Addition of amplex red elicited rapid increase in fluorescence signal due to resorufin formation, providing direct evidence for peroxidase activity of cytochrome c/CL complex (FIG. 19A).
Assessment of cytochrome c peroxidase activity was achieved using the Amplex® Red assay (Invitrogen/Life Technologies, Carlsbad, Calif.). Amplex® Red is a reagent that reacts with H2O2 in a 1:1 stoichiometry to produce highly fluorescent resorufin (λex/λem=570/585) in the presence of a peroxidase. In this assay, cytochrome c is added in place of horseradish peroxidase. 2 μM cytochrome c was incubated with cardiolipin or cardiolipin-POPC liposomes (10 μg/ml) for 1 min in 20 mM HEPES (pH 7.4) or deionized water prior to the addition of 50 μM Amplex® Red reagent and 10 μM H2O2, and the reaction was allowed to proceed for an additional 5 minutes. The continuous time course data were obtained using Hitachi F-4500 fluorescence spectrophotometer. When comparing the different SS peptide analogs (10 μM) in inhibiting peroxidase activity cytochrome c (2 μM) in the presence of cardiolipin (100 μg/ml), a microplate spectrofluorometer (Molecular Devices, Sunnyvale, Calif.) was used. Horseradish peroxidase (HRP) was used for comparison, and the HRP concentration (0.001 U/ml) was optimized to match the rate of Amplex® Red peroxidation by cardiolipin-cytochrome c complex.

[2] = target: cytochrome c and cardiolipin (Equus caballus, UniProt P00004); test: Oxidation of ferrous cytochrome c by cardiolipin (A550); conditions: 20 μM cytochrome c reduced by 50 μM ascorbic acid; 100 μg/ml cardiolipin
Description: Cytochrome c (20 μM) was reduced by 50 μM ascorbic acid until all available functionally active cytochrome c was reduced. The reduction of cytochrome c was monitored by the appearance of a peak at 550 nm in its absorbance spectrum (Molecular Devices, Sunnyvale, Calif.). […] The rate of oxidation was calculated based on slope of the change in absorbance intensity of 550 nm over 570 nm.

[3] = target: cytochrome c/cardiolipin complex (Equus caballus, UniProt P00004); test: Soret circular dichroism of cytochrome c with cardiolipin; conditions: 10 μM cytochrome c; for protection against CL-induced disappearance of negative Cotton effect: 30 μg/ml CL, 10 μM peptide, 20 mM HEPES pH 7.5, 25° C.; for loss of the negative Cotton peak at 419 nm caused by cardiolipin: 30 μg/ml cardiolipin, peptide 1:1 with cytochrome c, pH 7.4
Description: Circular dichroism (CD) was carried out to examine the effects of the peptides on protecting the heme environment of cytochrome c from the acyl chain of CL. For heme proteins, the Soret CD spectrum is strictly correlated with the heme pocket conformation. In particular, the negative 416-420 nm Cotton effect is considered diagnostic of Fe(III)-Met80 coordination in native cytochrome c (Santucci and Ascoli, 1997). […] CD spectra were obtained using AVIV CD Spectrometer Model 410.
Changes in the Soret CD spectrum of cytochrome c (10 μM) were recorded in the absence (dotted line) and presence (dashed line) of 30 μg/ml CL, plus addition of different peptides (10 μM) (solid line) (FIG. 14). CD measurements were carried out using 20 mM HEPES, pH 7.5, at 25° C. and expressed as molar ellipticity (A) (m Deg). […] Accordingly, aromatic-cationic peptides of the present disclosure are useful for the prevention or treatment of diseases or disorders characterized by dysregulation of cardiolipin and/or cytochrome c, and/or diseases or disorders characterized by dysregulation of the cardiolipin/cytochrome c interaction. In addition, aromatic-cationic peptides of the present disclosure are useful to protect the heme environment of cytochrome c from the acyl chain of cardiolipin.
Circular Dichroism (CD) spectra were collected with an AVIA 62 DS spectrophotometer equipped with a sample temperature controller. CD spectra of the Soret region (370-450 nm) were recorded with 10-mm path length cells containing 20 mM Hepes, pH 7.4, and 10 μM cytochrome c, in the presence or absence of 30 μg/ml cardiolipin and different SS peptide analogs (SS-02, [atn]SS-02, [ald]SS-02, and SS-31). The maximum lipid concentration was kept low to avoid spectral distortions due to excessive light scattering. All measurements were done at 25° C. All spectra were corrected for background, and the final spectrum shown represents the average of at least three experiments.

Sequence of cytochrome c/CL complex (P00004 2-105 limits assumed, one chain of several): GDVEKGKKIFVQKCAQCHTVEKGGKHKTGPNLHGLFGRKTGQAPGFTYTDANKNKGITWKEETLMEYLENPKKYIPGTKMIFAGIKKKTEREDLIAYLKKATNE
Sequence of cytochrome c and cardiolipin (P00004 2-105 limits assumed): as the sequence (P00004 2-105 limits assumed, one chain of several) above
Sequence of cardiolipin-cytochrome c complex (P00004 2-105 limits assumed, one chain of several): as above
Sequence of cytochrome c/cardiolipin complex (P00004 2-105 limits assumed, one chain of several): as above

2′,6′-Dmt-D-Arg-Ald-Lys-NH2 [SS-36]
rate of cytochrome c reduction in the presence of cardiolipin ([1]; 20 μM cytochrome c): about 90%
peroxidation rate of cytochrome c (cytochrome c/CL complex): about 20 % of control
oxidation of cytochrome c by cardiolipin (loss of the 550 nm peak) [2]: inhibition of cytochrome c oxidation
protection against CL-induced disappearance of negative Cotton effect [3]: Protect the Heme Environment of Cytochrome c from the Acyl Chain of CL
loss of the negative Cotton peak at 419 nm caused by cardiolipin [3]: prevented

2′,6′-Dmt-D-Arg-Phe-(atn)Dap-NH2 [SS-19]
rate of cytochrome c reduction in the presence of cardiolipin ([1]; 20 μM cytochrome c): about 50%
peroxidation rate of cytochrome c (cytochrome c/CL complex): ~75 % of control
oxidation of cytochrome c by cardiolipin (loss of the 550 nm peak) [2]: inhibition of cytochrome c oxidation
protection against CL-induced disappearance of negative Cotton effect [3]: Protect the Heme Environment of Cytochrome c from the Acyl Chain of CL
loss of the negative Cotton peak at 419 nm caused by cardiolipin [3]: prevented

D-Arg-2′,6′-Dmt-Lys-Phe-NH2 [SS-31]
inhibitory action of CL on cytochrome c reduction ([1]; 20 μM cytochrome c, 500 μM glutathione, CL 100 μg/ml, SS-31 20, 40 or 100 μM): dose-dependently prevented the inhibitory action of CL
rate of cytochrome c reduction in the presence of cardiolipin ([1]; 20 μM cytochrome c): 100%
inhibitory effect of CL on kinetics of cytochrome c reduction ([1]; 500 μM GSH or 50 μM ascorbate): dose-dependently overcame the inhibitory effect of CL
rate of amplex red peroxidation / kinetics of cytochrome c peroxidase activity (cytochrome c/CL complex; CL 25 μg/ml, 10 μM H2O2, 50 μM amplex red): decreased the rate of amplex red peroxidation; also recorded: dose-dependently reduced the kinetics of cytochrome c peroxidase activity
peroxidation rate of cytochrome c (cytochrome c/CL complex): ~35 % of control
oxidation of cytochrome c by cardiolipin (loss of the 550 nm peak) [2]: prevented by the addition of SS-31 in a concentration-dependent manner
protection against CL-induced disappearance of negative Cotton effect [3]: Protect the Heme Environment of Cytochrome c from the Acyl Chain of CL
loss of the negative Cotton peak at 419 nm caused by cardiolipin [3]: prevented
